Results published in patent publication US20060004086A1, “Method of reducing Abeta42 and treating diseases” (Mayo Foundation for Medical Education and Research, priority 2000, published 2006).
Read-outs that look alike come from different tables or passages of the source.

How the values were obtained:
Aβ42 production = Aβ42 production in APP695-transfected H4 cells; type: cell-based, human
Protocol: In a tertiary screen, Aβ production, sAPP production, and toxicity in a human H4 neuroglioma cell line that expressed APP are examined for all FDA-approved NSAIDs and novel NSAIDs that selectively reduce Aβ42 levels. Three doses of each NSAID are tested. The first is a dose that is expected to cause maximum reduction of Aβ42 levels. The second dose is one that reduces Aβ42 levels by 50% of the maximum value, while the third dose is one that reduces Aβ42 levels by 10-20% of the maximum value.

Aβ42 secretion [1] = experiment: Primary in vitro screen, CHO-APP695NL,I,his cells, end-specific Aβ40 and Aβ42 ELISAs; type: cell-based, Chinese hamster; conditions: for activity at 100 µM / activity at 10 µM: Cricetulus griseus, 6 h
Protocol: Aβ40 and Aβ42 levels in culture supernatants were determined for each time points using ELISA.
In a primary screen, the effects of NSAIDs on Aβ42 secretion by a CHO cell line that expressed APP(CHO-APP695NL,I,his) were examined. Duplicate cell cultures were treated with (a) a vehicle, (b) 10 μM of NSAID, or (c) 100 μM of NSAID.
To determine Aβ40 and Aβ42 levels, six-hour culture supernatants taken from cells grown in a single well of a twenty-four-well plate were used in end-specific Aβ40 and Aβ42 ELISAs (Suzuki, et al. (1994) Sci 264:[…]). Aβ40 and Aβ42 levels of cultures treated with NSAID were compared with those of cultures treated with the vehicle alone. […] NSAIDs that caused either selective reduction of Aβ42 levels or reduction in both Aβ40 and Aβ42 levels are subjected to a secondary screen.

[2] = plasma concentration of the drug; cited from earlier work
Aβ42 secretion [3] = experiment: Non-selective and selective COX-inhibitors tested for effect on Aβ42 levels in cell cultures (Table 1 summary); type: cell-based; conditions: cell cultures, cell line and concentration not stated
Protocol: All measurements were performed in duplicate.
Aβ40 and Aβ42 levels in cell culture supernatants were analyzed using ELISA. Aβ42/Aβ40 ratios and total Aβ levels were normalized to values obtained from DMSO-treated cultures. […] NSAIDs were verified using NMR and mass spectrometry.

[4] = tested on: brain Aβ42 levels in Tg2576 mice; experiment: Acute oral dosing of three-month-old Tg2576 mice, brain Aβ ELISA; type: in vivo, mouse; conditions: three-month old Tg2576 mice; 100 mg/kg/day orally for three days; compared with vehicle
Protocol: NSAIDs were dissolved in an appropriate vehicle. Dimethyl sulfoxide (DMSO), ethanol, and ethyl acetate are some examples. The NSAID solution was mixed with Kool-Aid and administered orally using a medicine dropper. […] At two hours after the final doses were administered, animals were sacrificed, and SDS soluble Aβ40 and Aβ42 were analyzed using ELISA.
Three month old mice have high levels of soluble Aβ in the brain but no Aβ deposition (see Hsiao et al. (1996) Science 274:99-102). […] Brain levels of SDS-soluble Aβ40 and Aβ42 were measured using ELISA.
Compounds were administered orally.

[5] = 10 μM, six-hour culture supernatants
[6] = 100 μM, six-hour culture supernatants, read-out: % Control % Aβ42
[7] = 100 μM, six-hour culture supernatants, read-out: % Control Aβ40
[8] = 100 μM, six-hour culture supernatants, read-out: % Control Aβ42
[9] = 100 μM, six-hour culture supernatants

SMILES	activity at 100 µM (Aβ42 secretion [1]; [6]) [%]	activity at 100 µM (Aβ42 secretion [1]; [7]) [%]	activity at 100 µM (Aβ42 secretion [1]; [8]) [%]	also measured
CC(C(=O)O)c1ccc(-c2ccccc2)c(F)c1 (racemic) [Flurbiprofen, flurbiprofen]				levels of Aβ40 production (Aβ42 production): not altered; Aβ42 levels lowered by (Aβ42 production; 100 μM): 50%
CCCCC#CCSc1ccccc1OC(C)=O [APHS]				% Control % Aβ42 (Aβ42 secretion [1]; [5]): 178%; % Control Aβ40 (Aβ42 secretion [1]; [5]): 50%; % Control Aβ42 (Aβ42 secretion [1]; [5]): 114%
COc1ccc2c(c1)c(CC(=O)OCC(=O)O)c(C)n2C(=O)c1ccc(Cl)cc1 [Acemetacin]	93	110	101	
CN(C)CCCOc1nn(Cc2ccccc2)c2ccccc12 [Benzydamine]	132	90	128	
CC(C(=O)O)c1ccc2c(c1)[nH]c1ccc(Cl)cc12 (stereo not shown) [Carprofen]	86	58	48	
Cc1ccc(-c2cc(C(F)(F)F)nn2-c2ccc(S(N)(=O)=O)cc2)cc1 [Celecoxib, celecoxib]				Plasma [2]: 0.015 µM
O=C(O)Cc1ccccc1Nc1c(Cl)cccc1Cl [Diclofenac]	100	88	87	Plasma [2]: 6.1 µM; total Aβ levels (Aβ42 secretion [3]): did not affect
CCc1cccc2c3c([nH]c12)C(CC)(CC(=O)O)OCC3 (stereo not shown) [Etodolac]	120	85	109	
O=C(O)CCC(=O)c1ccc(-c2ccccc2)cc1 [Fenbufen]	107	100	109	
CC(C(=O)O)c1cccc(Oc2ccccc2)c1 (stereo not shown) [Fenoprofen, fenoprofen]	63	102	60	
O=C(O)c1ccccc1Nc1cccc(C(F)(F)F)c1 [Flufenamic Acid, flufenamic acid]				selective reduction of Aβ42 levels in the primary screen (Aβ42 secretion [1]; 10 μM or 100 μM, classification on a 20% change): selectively reduced Aβ42 levels; activity at 10 µM (Aβ42 secretion [1]; 10 μM, six-hour culture supernatants, read-out: % Control % Aβ42): 70%; activity at 10 µM (Aβ42 secretion [1]; 10 μM, six-hour culture supernatants, read-out: % Control Aβ40): 99%; activity at 10 µM (Aβ42 secretion [1]; 10 μM, six-hour culture supernatants, read-out: % Control Aβ42): 64%
CC(C(=O)O)c1ccc(-c2ccccc2)c(F)c1 (stereo not shown) [Flurbiprofen, flurbiprofen]				activity at 100 µM (Aβ42 secretion [1]; read-out: % Control % Aβ42): 80%; activity at 100 µM (Aβ42 secretion [1]; read-out: % Control Aβ40): 93%; activity at 100 µM (Aβ42 secretion [1]; read-out: % Control Aβ42): 70%; brain Aβ42 levels [4]: lower Aβ42 levels
Cc1ccc(C(C)C)cc2c(C)ccc1-2 [Guaiazulene]	156	70	124	
CC(C(=O)O)c1ccc(N2Cc3ccccc3C2=O)cc1 (stereo not shown) [Indoprofen]	107	116	126	
Cc1cc(NC(=O)C2=C(O)c3ccccc3S(=O)(=O)N2C)no1 [Isoixicam]				% Control % Aβ42 (Aβ42 secretion [1]; [9]): 103%; % Control Aβ40 (Aβ42 secretion [1]; [9]): 109%; % Control Aβ42 (Aβ42 secretion [1]; [9]): 112%
CC(C(=O)O)c1cccc(C(=O)c2ccccc2)c1 (stereo not shown) [Ketoprofen]	117	88	107	
